Source: US12091425B2 (AMGEN INC., priority 2016, dated 2024)
Where two headings read alike, the source gives them in different places.

Details: 16-membered ring

Molecule: C[C@H]1CS(=O)(=O)NC(=O)c2ccc3c(c2)N(C[C@@H]2CC[C@H]2[C@@H](O)C=C[C@H]1CO[Si](c1ccccc1)(c1ccccc1)C(C)(C)C)C[C@@]1(CCCc2cc(Cl)ccc21)CO3 (single isomer, unassigned)
- ring closure, isolated yield (from C[C@@H](CS(N)(=O)=O)[C@@H](/C=C/[C@H](O)[C@@H]1CC[C@H]1CN1C[C@@]2(CCCc3cc(Cl)ccc32)COc2ccc(C(=O)O)cc21)CO[Si](c1ccccc1)(c1ccccc1)C(C)(C)C, amide bond, EDC/DMAP, DCM, 2.0 mM, 16.0 h, 3 steps): 10.8%

Molecule: O=C1NS(=O)(=O)[C@H]2CCC[C@H](C=C[C@H](O)[C@@H]3CC[C@H]3CN3C[C@@]4(CCCc5cc(Cl)ccc54)COc4ccc1cc43)C2 (single isomer, unassigned)
- ring closure, isolated yield (from NS(=O)(=O)[C@H]1CCC[C@H](/C=C/[C@H](O)[C@@H]2CC[C@H]2CN2C[C@@]3(CCCc4cc(Cl)ccc43)COc3ccc(C(=O)O)cc32)C1, amide bond, EDC/DMAP, DCM, 2.0 mM, 64.0 h): 20%

Molecule: (1S,3′R,6′R,7′S,8′E,12′R)-12′-((2S)-2-((tert-butyl(diphenyl)silyl)oxy)propyl)-6-chloro-7′-hydroxy-3,4-dihydro-2h,15′h-spiro[naphthalene-1,22′-[20]oxa[13]thia[1,14]diazatetracyclo[14.7.2.0^3,6.0^19,24]pentacosa[8,16,18,24]tetraen]-15′-one 13′,13′-dioxide or (1S,3′R,6′R,7′S,8′E,12′S)-12′-((2S)-2-((tert-butyl(diphenyl)silyl)oxy)propyl)-6-chloro-7′-hydroxy-3,4-dihydro-2h,15′h-spiro[naphthalene-1,22′-[20]oxa[13]thia[1,14]diazatetracyclo[14.7.2.0^3,6.0^19,24]pentacosa[8,16,18,24]tetraen]-15′-one 13′,13′-dioxide
- ring closure, isolated yield (rcm bond, Hoveyda-Grubbs II, DCM, 2.7 mM, 45.0 °C): 32%

Molecule: (1S,3′R,6′R,7′S,8′E,12′R)-12′-((2S)-2-((tert-butyl(diphenyl)silyl)oxy)propyl)-6-chloro-7′-hydroxy-3,4-dihydro-2h,15′h-spiro[naphthalene-1,22′-[20]oxa[13]thia[1,14]diazatetracyclo[14.7.2.0^3,6.0^19,24]pentacosa[8,16,18,24]tetraen]-15′-one 13′,13′-dioxide] or (1S,3′R,6′R,7′S,8′E,12′S)-12′-((2S)-2-((tert-butyl(diphenyl)silyl)oxy)propyl)-6-chloro-7′-hydroxy-3,4-dihydro-2h,15′h-spiro[naphthalene-1,22′-[20]oxa[13]thia[1,14]diazatetracyclo[14.7.2.0^3,6.0^19,24]pentacosa[8,16,18,24]tetraen]-15′-one 13′,13′-dioxide
- ring closure, isolated yield (rcm bond, Hoveyda-Grubbs II (20 mol%), DCM, 1.5 mM, 45.0 °C): 27%

Molecule: (1S,3′R,6′R,7′S,8′E,12′S)-12′-((2R)-2-((tert-butyl(diphenyl)silyl)oxy)propyl)-6-chloro-7′-hydroxy-3,4-dihydro-2H,15′H-spiro[naphthalene-1,22′-[20]oxa[13]thia[1,14]diazatetracyclo[14.7.2.0^3,6.0^19,24]pentacosa[8,16,18,24]tetraen]-15′-one 13′,13′-dioxide or (1S,3′R,6′R,7′S,8′E,12′R)-12′-((2R)-2-((tert-butyl(diphenyl)silyl)oxy)propyl)-6-chloro-7′-hydroxy-3,4-dihydro-2H,15′H-spiro[naphthalene-1,22′-[20]oxa[13]thia[1,14]diazatetracyclo[14.7.2.0^3,6.0^19,24]pentacosa[8,16,18,24]tetraen]-15′-one 13′,13′-dioxide
- ring closure, isolated yield (rcm bond, Hoveyda-Grubbs II, DCM, 1.5 mM, 45.0 °C): 20%

Molecule: (1S,3′R,6′R,7′S,8′Z,12′S)-12′-((2R)-2-((tert-butyl(diphenyl)silyl)oxy)propyl)-6-chloro-7′-hydroxy-3,4-dihydro-2H,15′H-spiro[naphthalene-1,22′-[20]oxa[13]thia[1,14]diazatetracyclo[14.7.2.0^3,6.0^19,24]pentacosa[8,16,18,24]tetraen]-15′-one 13′,13′-dioxide or (1S,3′R,6′R,7′S,8′Z,12′R)-12′-((2R)-2-((tert-butyl(diphenyl)silyl)oxy)propyl)-6-chloro-7′-hydroxy-3,4-dihydro-2H,15′H-spiro[naphthalene-1,22′-[20]oxa[13]thia[1,14]diazatetracyclo[14.7.2.0^3,6.0^19,24]pentacosa[8,16,18,24]tetraen]-15′-one 13′,13′-dioxide
- ring closure, isolated yield (rcm bond, Hoveyda-Grubbs II (10 mol%), DCM, 1.5 mM, 45.0 °C): 30%

Molecule: (1S,3′R,6′R,7′S,9′Z,12′S)-6-chloro-7′-hydroxy-12′-(trifluoromethyl)-3,4-dihydro-2H,15′H-spiro[naphthalene-1,22′-[20]oxa[13]thia[1,14]diazatetracyclo[14.7.2.0^3,6.0^19,24]pentacosa [9,16,18,24]tetraen]-15′-one 13′,13′-dioxide and [...] (1S,3′R,6′R,7′S,9′E,12′S)-6-chloro-7′-hydroxy-12′-(trifluoromethyl)-3,4-dihydro-2H,15′H-spiro[naphthalene-1,22′-[20]oxa[13]thia[1,14]diazatetracyclo[14.7.2.0^3,6.0^19,24]pentacosa [9,16,18,24]tetraen]-15′-one 13′,13′-dioxide and (1S,3′R,6′R,7′S,9′E,12′R)-6-chloro-7′-hydroxy-12′-(trifluoromethyl)-3,4-dihydro-2H,15′H-spiro[naphthalene-1,22′-[20]oxa[13]thia[1,14]diazatetracyclo[14.7.2.0^3,6.0^19,24]pentacosa [9,16,18,24]tetraen]-15′-one 13′,13′-dioxide
- ring closure, isolated yield (rcm bond, Hoveyda-Grubbs II, toluene, 2.4 mM, 101.0 °C): 63%

Molecule: [(1S,3′R,6′R,7′S,8′Z,12′R)-12′-((2R)-2-((tert-butyl(diphenyl)silyl)oxy)propyl)-6-chloro-7′-hydroxy-3,4-dihydro-2h,15′h-spiro[naphthalene-1,22′-[20]oxa[13]thia[1,14]diazatetracyclo[14.7.2.0^3,6.0^19,24]pentacosa[8,16,18,24]tetraen]-15′-one 13′,13′-dioxide and (1S,3′R,6′R,7′S,8′E,12′R)-12′-((2R)-2-((tert-butyl(diphenyl)silyl)oxy)propyl)-6-chloro-7′-hydroxy-3,4-dihydro-2h,15′h-spiro[naphthalene-1,22′-[20]oxa[13]thia[1,14]diazatetracyclo[14.7.2.0^3,6.0^19,24]pentacosa[8,16,18,24]tetraen]-15′-one 13′,13′-dioxide] or [(1S,3′R,6′R,7′S,8′Z,12′S)-12′-((2R)-2-((tert-butyl(diphenyl)silyl)oxy)propyl)-6-chloro-7′-hydroxy-3,4-dihydro-2h,15′h-spiro[naphthalene-1,22′-[20]oxa[13]thia[1,14]diazatetracyclo[14.7.2.0^3,6.0^19,24]pentacosa[8,16,18,24]tetraen]-15′-one 13′,13′-dioxide and (1S,3′R,6′R,7′S,8′E,12′S)-12′-((2R)-2-((tert-butyl(diphenyl)silyl)oxy)propyl)-6-chloro-7′-hydroxy-3,4-dihydro-2h,15′h-spiro[naphthalene-1,22′-[20]oxa[13]thia[1,14]diazatetracyclo[14.7.2.0^3,6.0^19,24]pentacosa[8,16,18,24]tetraen]-15′-one 13′,13′-dioxide]
- ring closure, isolated yield (rcm bond, Hoveyda-Grubbs II, DCM, 1.4 mM, 45.0 °C): 38%
- ring closure, isolated yield (rcm bond, Hoveyda-Grubbs II, DCM, 1.51 mM, 45.0 °C): 52%
